Experimental data reported in patent US12617777B2, “GPR84 antagonists and uses thereof” (Liminal BioSciences Limited, priority 2021, dated 2026).

Target: T1, human GPR84 receptor (Homo sapiens, UniProt Q9NQS5)
T1 construct: host or cells: HEK293, transient transfection
Assay: Gαi biosensor BRET assay in HEK293 cells (antagonism of ZQ-16)
Format: cell-based
Settings: for inhibition at 2 µM: HEK293, single concentration 2 μM (designated A); for inhibition at 10 µM: HEK293, single concentration 10 μM (designated F); for IC50: HEK293 cells, antagonism of 200 nmol/L ZQ-16; for inhibition at 25 µM: HEK293, single concentration 25 μM (designated I)
Description: Background—The following assays can be used for determination of GPR84 activation in living HEK293 cells. The Gai BRET biosensor (Gagnon et al., 2018; Gales et al., 2006. Nat StructMol Biol. 13, 778-86; Saulieres et al., 2012. Nat Chem Biol. 8, 622-30) allows to directly monitor GPR84-mediated activation of Gai. The Gai biosensor consists of a Rluc8-tagged Gαi2 subunit, a GFP10-tagged Gγ2 subunit, and an untagged Gβ1. Agonist stimulation and GPR84 activation triggers a physical separation between the RLuc8-Gαi donor and the GFP10-Gγ2 acceptor, resulting in a decrease in BRET signal whose amplitude is correlated to ligand efficacy (Gales et al., 2006). Moreover, signaling functions of GPCRs are tightly regulated by endocytosis, the targeting of receptors to endosomes and their sorting to lysosomes or recycling to the plasma membrane. The early endosomes (EEs) trafficking assay (Namkung et al., 2016. Nat Commun. 7, 12178) uses Rluc8-tagged GPR84 and Renilla GFP (rGFP) attached to the FYVE domain from human endofin/zinc finger FYVE domain-containing protein 16, which binds phosphatidylinositol 3-phosphate in EEs. Agonist stimulation of GPR84-Rluc8 leads to trafficking of the receptor to EEs, and ensuing increase of the donor concentration relative to the rGFP-FYVE acceptor anchored in the same cellular compartment, and thus results in an increase in BRET signal.
Plasmids—The cDNA clones for human GPR84 receptor, human Gai2, Gp1, and Gy2 were obtained from the cDNA Resource Center (www.cdna.org). GFP10 (F64L, S147P, S202F and H231L variant of Aequorea victoria Green Fluorescent Protein) gBlocks gene fragments (Integrated DNA Technologies, IA) and linker were inserted in frame at the N-terminus of human Gγ2. Rluc8 (A55T, C124A, S130A, K136R, A143M, M185V, M253L, and S287L variant of the Renilla renformis luciferase) gBlocks gene fragment was inserted with linkers in frame in between residues 91 and 92 of Gai2 or at the C-terminus of GPR84. The FYVE domain from human endofin (residues Q739 to K806) attached in frame at the C terminus of a humanized Renilla GFP (rGFP), were synthesized as gBlocks gene fragments.
Bioluminescence Resonance Energy Transfer (BRET) Measurement—HEK293 cells were transfected with GPR84-Rluc8 and rGFP-FYVE for the EEs trafficking biosensor or with GPR84, Gαi2-Rluc8, GFP10-Gγ2, and Gβ1 for the Gαi biosensor. The following day, transiently transfected cells were seeded in 96-well white clear bottom microplates coated with poly-D-lysine and left in culture for 24 hours. Cells were washed once with Tyrode's buffer (140 mmol/L NaCl, 1 mmol/L CaCl2, 2.7 mmol/L KCl, 0.49 mmol/L MgCl2, 0.37 mmol/L NaH2PO4, 5.6 mmol/L glucose, 12 mmol/L NaHCO3, and 25 mmol/L HEPES, pH 7.5) before performing assays in Tyrode's buffer. Test compounds were incubated with cells for 5 (Gαi) or 15 (EEs) minutes at 37° C. before addition of 200 nmol/L of the GPR84 agonist ZQ-16 (2-(Hexylthio)-6-hydroxy-4(3H)-pyrimidinone) for 5 minutes at room temperature (Gαi) or 30 minutes at 37° C. (EEs). The Rluc8 substrate coelenterazine 400A (Prolume, Lakeside, AZ) was added at a final concentration of 5 μmol/L and BRET readings were collected using an Infinite M1000 microplate reader (Tecan, Morrisville, NC). BRET^2 readings between Rluc8 and GFP10 or rGFP were collected by sequential integration of the signals detected in the 370 to 450 nm (Rluc8) and 510 to 540 nm (GFP10, rGFP) windows. The BRET signal was calculated as the ratio of light emitted by acceptor (GFP10, rGFP) over the light emitted by donor (Rluc8). The values were corrected to net BRET by subtracting the background BRET signal obtained in cells transfected with Rluc8 constructs alone. Ligand-promoted net BRET values were calculated by subtracting vehicle-induced net BRET from ligand-induced net BRET.

T1 sequence (Q9NQS5 whole entry): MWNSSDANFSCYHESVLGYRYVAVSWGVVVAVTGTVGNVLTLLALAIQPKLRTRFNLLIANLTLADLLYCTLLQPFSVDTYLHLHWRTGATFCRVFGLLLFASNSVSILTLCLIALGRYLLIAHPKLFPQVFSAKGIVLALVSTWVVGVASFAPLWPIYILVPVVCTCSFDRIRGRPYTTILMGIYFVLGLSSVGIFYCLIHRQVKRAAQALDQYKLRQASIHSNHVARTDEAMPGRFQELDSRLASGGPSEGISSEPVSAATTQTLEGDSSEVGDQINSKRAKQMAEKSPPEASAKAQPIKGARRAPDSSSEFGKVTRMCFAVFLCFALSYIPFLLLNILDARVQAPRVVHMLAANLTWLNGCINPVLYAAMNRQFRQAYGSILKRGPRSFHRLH

SMILES | inhibition at 10 µM | further results
Cc1cc(C#CC2CC2)ccc1-c1cn(CC23CC4CC(CC(C4)O2)C3)nn1 [Compound I-523] | – | inhibition at 2 µM: ≤ 25%
CCc1cc(C#CCNC(=O)OC(C)C)ccc1-c1cn(CC2CCCCO2)nn1 (centres unmarked) [Compound I-598] | > 75% | IC50: 1000 to 3000 nM
Cc1cc(C#CC2CC2)ccc1-c1cn(CC(O)CO)nn1 (centres unmarked) [Compound I-224] | 25 to 50% | –
C(#CC1CC1)c1ccc(-c2cn(CC3CCCCO3)cn2)cc1 (centres unmarked) [Compound I-333] | – | inhibition at 15 µM (HEK293, single concentration 15 μM (designated H)): ≤ 25%
Cc1cc(N2CC(C)(CNS(C)(=O)=O)C2)ccc1-c1cn(CC2CCCCO2)nn1 (centres unmarked) [Compound I-448] | 50 to 75% | –
Cc1cc(N2CC3(CCN(Cc4ccccn4)CC3)C2)ccc1-c1cn(CC2CCCCO2)nn1 (centres unmarked) [Compound I-311] | 50 to 75% | –
CC(c1ccc(C#CC2CC2)cc1)c1cn(CC2CCCCO2)nn1 (centres unmarked) [Compound I-313] | 50 to 75% | –
Cc1cc(N2CCN(Cc3ccccn3)CC2)ccc1-c1cncn1C[C@H]1CCCCO1 [Compound I-672] | ≤ 25% | –
CC1(C)COC(Cn2cc(-c3ncc(C#CC4CC4)cc3CO)nn2)OC1 [Compound I-738] | – | inhibition at 2 µM: ≤ 25%
CC(c1cccc(N2CC(C)(C)C2)c1)c1cn(CC2CCCCO2)nn1 (centres unmarked) [Compound I-536] | ≤ 25% | –
Cc1cc(C#CC2CC2)ccc1-n1cc(CN2CCCCC2)nn1 [Compound I-296] | – | inhibition at 25 µM: ≤ 25%
CC1(C)COC(Cn2cc(-c3ncc(C#CCN4CC(C)(C)C4)cc3OCC(F)(F)F)nn2)OC1 [Compound I-722] | – | inhibition at 2 µM: > 75%; IC50: ≤ 300 nM
Cc1cc(N2CCN(Cc3ccccn3)CC2)ccc1-c1cn(CC2OCC(F)(F)CO2)nn1 [Compound I-615] | 50 to 75% | –
COC(C)(c1cccc(C#CC2CC2)c1)c1cn(CC2CCCCO2)nn1 (centres unmarked) [Compound I-631] | > 75% | –
CN(C)c1cc(N2CC(C)(CO)C2)ccc1-c1cn(CC2OCC(F)(F)CO2)nn1 [Compound I-729] | > 75% | –
N#Cc1cc(C#CC2CC2)ccc1-c1cn(CC2CCCCO2)nn1 (centres unmarked) [Compound I-133] | 50 to 75% | –
Cc1cc(C#CC2CC2)cnc1-c1cn(CC2OCC(c3ccccc3)CO2)nn1 (centres unmarked) [Compound I-705] | ≤ 25% | –
Cc1cc(C#CCN(C)C2CC2)ccc1-c1cn(CC2OCC(C)(C)CO2)nn1 [Compound I-698] | > 75% | IC50: 300 to 1000 nM
Cc1cc(C#CCN2CCN(c3ccccc3)CC2)ccc1-c1cn(CC2CCCCO2)nn1 (centres unmarked) [Compound I-867] | – | IC50: ≤ 300 nM
CC1(C)CN(c2ccc(-c3cn(CC4CCCCO4)nn3)c(OCCO)c2)C1 (centres unmarked) [Compound I-280] | > 75% | –
Cc1cc(C#CC2CC2)ccc1-c1cn(CC2COCCN2)nn1 (centres unmarked) [Compound I-515] | ≤ 25% | –
Cc1cc(OCC(C)(C)N)ccc1-c1cn(CC2CCCCO2)nn1 (centres unmarked) [Compound I-287] | ≤ 25% | –
Cc1cc(C#CC2CC2)nnc1-c1cn(CC2CCCCO2)nn1 (centres unmarked) [Compound I-433] | ≤ 25% | –
COCC1(C)CN(c2ccc(-c3cn(CC4CCCCO4)nn3)c(C)c2)C1 (centres unmarked) [Compound I-439] | 25 to 50% | –
Cc1cc(C#CC2CC2)cnc1-c1cn(CC2CCCO2)nn1 (centres unmarked) [Compound I-204] | 25 to 50% | –
CN(C)c1cc(N2CC3(COC3)C2)c(F)cc1-c1cn(CC2OCC(C)(C)CO2)nn1 [Compound I-849] | > 75% | –
C(#CC1CC1)c1ccc(-c2cn(C[C@H]3CCCO3)nn2)cc1 [Compound I-27] | – | inhibition at 25 µM: 25 to 50%; IC50: > 3000 nM

SMILES | inhibition at 10 µM | further results
Cc1cc(N2CC3(CCCN3c3ccccn3)C2)ccc1-c1cn(CC2CCCCO2)nn1 (centres unmarked) [Compound I-623] | 50 to 75% | –
C(#CC1CC1)c1ccc(-c2cn(CC3CCCCO3)nn2)s1 (centres unmarked) [Compound I-38] | – | inhibition at 25 µM: 50 to 75%
Cc1cc(C#CC2CC2)ccc1-c1cn(Cc2ncccn2)nn1 [Compound I-262] | 50 to 75% | –
Cc1ccc(C#CC2CC2)cc1N(C)c1cn(CC2OCC3(CC3)CO2)nn1 [Compound I-842] | – | inhibition at 2 µM: 50 to 75%
CCc1cc(C#CC2CC2)cnc1-c1cn(CC2CCCCO2)nn1 (centres unmarked) [Compound I-220] | > 75% | IC50: 300 to 1000 nM
Cc1cc(N2CCC(N(C)C)CC2)ccc1-c1cn(CC2CCCCO2)nn1 (centres unmarked) [Compound I-129] | ≤ 25% | –
C=C(c1cn(C[C@H]2CCCCO2)nn1)c1cccc(C#CC2CC2)c1C [Compound I-742] | > 75% | –
CN(c1ccc(C#N)cc1)c1cn(CC2OCC(C)(C)CO2)nn1 [Compound I-793, 4-((1-((5,5-dimethyl-1,3-dioxan-2-yl)methyl)-1H-1,2,3-triazol-4-yl)(methyl)amino)benzonitrile] | – | inhibition at 2 µM: > 75%
Cc1c(C#CC2CC2)cccc1-c1cn(CC2CCCCO2)nn1 (centres unmarked) [Compound I-80] | – | inhibition at 25 µM: ≤ 25%
Cc1cccc(-c2cn(CC#Cc3ccc(-c4cn(CC5CCCCO5)nn4)c(C)c3)nn2)c1 (centres unmarked) [Compound I-492] | > 75% | IC50: ≤ 300 nM
Cc1cc(N2CCN(Cc3cncnc3)CC2)ccc1-c1cn(CC2CCCCO2)nn1 (centres unmarked) [Compound I-566] | 25 to 50% | –
CN(C)c1cc(N2CC(C)(CO)C2)c(F)cc1-c1cn(CC2OCC3(CC3)CO2)nn1 [Compound I-784] | – | IC50: ≤ 300 nM
Cc1cc(C#CC2CC2)ccc1-c1cn(CC2CCC(F)(F)CO2)nn1 (centres unmarked) [Compound I-207] | 50 to 75% | –
Cc1cc(C#CCN)ccc1-c1cn(CC2OCC(C)(C)CO2)nn1 [Compound I-690] | 25 to 50% | –
Clc1cc(C#CC2CC2)cnc1-c1cn(C[C@H]2CCCCO2)nn1 [Compound I-823] | ≤ 25% | –
Cc1cc(C#CC2CC2)ccc1-c1cn(CCOC(C)(C)C)nn1 [Compound I-98] | ≤ 25% | –
Cc1cc(C#CC2CC2)ccc1-c1cn(CC2CCCCO2)cn1 (centres unmarked) [Compound I-341] | 50 to 75% | –
Cc1cc(C#CCNC(=O)OC(C)(C)C)cnc1-c1cn(CC2CCCCO2)nn1 (centres unmarked) [Compound I-538] | > 75% | IC50: 300 to 1000 nM
Cc1cc(N2CC3(CN(Cc4ccccc4)C3)C2)ccc1-c1cn(CC2CCCCO2)nn1 (centres unmarked) [Compound I-146] | 25 to 50% | –
CC(C)Oc1cc(N2CC(C)(CO)C2)ccc1-c1cn(CC2OCC(C)(C)CO2)nn1 [Compound I-678] | – | inhibition at 2 µM: > 75%; IC50: 300 to 1000 nM
Cc1ccc(C#CC2CC2)cc1S(=O)(=O)c1cn(CC2OCC(C)(C)CO2)nn1 [Compound I-783, 4-((5-(cyclopropylethynyl)-2-methylphenyl)sulfonyl)-1-((5,5-dimethyl-1,3-dioxan-2-yl)methyl)-1H-1,2,3-triazole] | ≤ 25% | –
Cc1cc(N2CC(C)(CO)C2)c(F)cc1-c1cn(CC2CCCCO2)nn1 (centres unmarked) [Compound I-730] | > 75% | IC50: 300 to 1000 nM
Cc1ccc(C#CC2CC2)nc1-c1cn(CC2CCCCO2)nn1 (centres unmarked) [Compound I-479] | ≤ 25% | –
COc1cc(C)c(-c2cn(CC3CCCCO3)nn2)cc1OC (centres unmarked) [Compound I-257] | ≤ 25% | –
Cc1cc(N2CC3(CN(c4cccnc4)C3)C2)ccc1-c1cn(CC2CCCCO2)nn1 (centres unmarked) [Compound I-629] | ≤ 25% | –
C(#CC1CC1)c1ccc(-c2ccn(CC3CCCCO3)n2)cc1 (centres unmarked) [Compound I-321] | – | inhibition at 25 µM: 25 to 50%
